# Data taken from US20220249711A1, “METHODS FOR TREATING TUMORS” (CENTRE HOSPITALIER UNIVERSITAIRE DE GRENOBLE, priority 2019, published 2022).
# Assays:
# [1] = test system: brain metastases; assay: MRI signal enhancement in brain metastases, Nano-Rad phase I-b trial; format: in vivo, human; conditions: D0, 15 min after i.v. Dotarem 0.2 mL/kg (0.1 mmol/kg); metastases >1 cm; mean ±SD
# Description: This study is part of a prospective dose escalation phase I-b clinical trial to evaluate the tolerance of the intravenous administration of radiosensitizing AGuIX nanoparticles in combination with whole brain radiotherapy for the treatment of brain metastases. The Nano-Rad trial (Radiosensitization of Multiple Brain Metastases Using AGuIX Gadolinium Based Nanoparticles) was registered as NCT02820454. Here, we report the findings of the MRI protocol applied to the 15 recruited patients. The objectives assigned to this MRI ancillary study were to i) assess the distribution of AGuIX nanoparticles in brain metastases and surrounding healthy tissues and ii) to measure the T1-weighted contrast enhancement and nanoparticle concentration in brain metastases and surrounding healthy tissues after intravenous administration of AGuIX nanoparticles (Verry C, et al. BMJ Open. 9:e023591 (2019)).
# Patients with multiple brain metastases ineligible for local treatment by surgery or stereotactic radiation were recruited. […]
# [2] = magnetic field of 3 Tesla; reference cited; cited from earlier work
structure (smiles),measurement,setting,value
"CNC[C@H](O)[C@@H](O)[C@H](O)[C@H](O)CO.O=C([O-])CN1CCN(CC(=O)[O-])CCN(CC(=O)O)CCN(CC(=O)[O-])CC1.[Gd+3] [Dotarem, gadoterate meglumine]",MRI enhancement averaged over all measurable metastases,[1],182.9±116.2%
same,r1 per Gd^3+ ion,[2],3.5 mM⁻¹ s⁻¹
